# From PubChem BioAssay AID1963973 (Molecular Pharmacology Branch, DTP, NCI, 2024)
# Test system: 883617-216-R-J1-PDC tumor spheroids, viability
# Test: Anticancer human tumor 883617-216-R-J1-PDC patient-derived bladder carcinoma cell line growth inhibition [PI3K]
# Settings: spheroids with HUVEC and MSC; for IC50: curve of first compound; for viability, T/C: stronger effect = lower value
# Summary of the method: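 Complex 3D spheroids (cancer cells + endothelial HUVEC + mesenchymal stem cells); drug pairs of targeted agent x inavolisib/alpelisib/duvelisib/copanlisib; half-log series from ~Cmax, max 10 microM if Cmax unknown; endpoint viability.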
# [1] = second compound 0.0316 µM, first compound 0.0316 µM
# [2] = second compound 0.0316 µM, first compound 0.1 µM
# [3] = second compound 0.0316 µM, first compound 0.316 µM
# [4] = second compound 0.0316 µM, first compound 1 µM
# [5] = second compound 0.1 µM, first compound 0.0316 µM
# [6] = second compound 0.1 µM, first compound 0.1 µM
# [7] = second compound 0.1 µM, first compound 0.316 µM
# [8] = second compound 0.1 µM, first compound 1 µM
# [9] = second compound 0.316 µM, first compound 0.0316 µM
# [10] = second compound 0.316 µM, first compound 0.1 µM
# [11] = second compound 0.316 µM, first compound 0.316 µM
# [12] = second compound 0.316 µM, first compound 1 µM
# [13] = second compound 1 µM, first compound 0.0316 µM
# [14] = second compound 1 µM, first compound 0.1 µM
# [15] = second compound 1 µM, first compound 0.316 µM
# [16] = second compound 1 µM, first compound 1 µM
# [17] = second compound 3.16 µM, first compound 0.0316 µM
# [18] = second compound 3.16 µM, first compound 0.1 µM
# [19] = second compound 3.16 µM, first compound 0.316 µM
# [20] = second compound 3.16 µM, first compound 1 µM
# [21] = second compound 10 µM, first compound 0.0316 µM
# [22] = second compound 10 µM, first compound 0.1 µM
# [23] = second compound 10 µM, first compound 0.316 µM
# [24] = second compound 10 µM, first compound 1 µM
# [25] = second compound 0.0316 µM, first compound 3.16 µM
# [26] = second compound 0.0316 µM, first compound 10 µM
# [27] = second compound 0.1 µM, first compound 3.16 µM
# [28] = second compound 0.1 µM, first compound 10 µM
# [29] = second compound 0.316 µM, first compound 3.16 µM
# [30] = second compound 0.316 µM, first compound 10 µM
# [31] = second compound 1 µM, first compound 3.16 µM
# [32] = second compound 1 µM, first compound 10 µM
# [33] = second compound 3.16 µM, first compound 3.16 µM
# [34] = second compound 3.16 µM, first compound 10 µM
# [35] = second compound 10 µM, first compound 3.16 µM
# [36] = second compound 10 µM, first compound 10 µM
# 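Further: spheroids exposed to agents for 7 days before the viability read.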
compound,measurement,setting,value
CCN1CCN(Cc2ccc(Nc3ncc(F)c(-c4cc(F)c5nc(C)n(C(C)C)c5c4)n3)nc2)CC1 + CC(Nc1ncnc2nc[nH]c12)c1cc2cccc(Cl)c2c(=O)n1-c1ccccc1,IC50,second compound 0.0316 µM,> 1000 nM
same,IC50,second compound 0.1 µM,> 1000 nM
same,IC50,second compound 0.316 µM,582 nM
same,IC50,second compound 1 µM,282 nM
same,IC50,second compound 3.16 µM,31.9 nM
same,IC50,second compound 10 µM,3.37 nM
same,"viability, T/C","second compound 0.0316 µM, first compound 0.00316 µM",91.4%
same,"viability, T/C","second compound 0.0316 µM, first compound 0.01 µM",79.4%
same,"viability, T/C",[1],79.2%
same,"viability, T/C",[2],65.7%
same,"viability, T/C",[3],56.3%
same,"viability, T/C",[4],51.3%
same,"viability, T/C","second compound 0.1 µM, first compound 0.00316 µM",89.3%
same,"viability, T/C","second compound 0.1 µM, first compound 0.01 µM",88.8%
same,"viability, T/C",[5],71.6%
same,"viability, T/C",[6],60.2%
same,"viability, T/C",[7],64.1%
same,"viability, T/C",[8],50.7%
same,"viability, T/C","second compound 0.316 µM, first compound 0.00316 µM",87.5%
same,"viability, T/C","second compound 0.316 µM, first compound 0.01 µM",78.4%
same,"viability, T/C",[9],60.8%
same,"viability, T/C",[10],67.8%
same,"viability, T/C",[11],46%
same,"viability, T/C",[12],49.6%
same,"viability, T/C","second compound 1 µM, first compound 0.00316 µM",69.6%
same,"viability, T/C","second compound 1 µM, first compound 0.01 µM",69.4%
same,"viability, T/C",[13],59.3%
same,"viability, T/C",[14],52.2%
same,"viability, T/C",[15],54.8%
same,"viability, T/C",[16],40.2%
same,"viability, T/C","second compound 3.16 µM, first compound 0.00316 µM",72.5%
same,"viability, T/C","second compound 3.16 µM, first compound 0.01 µM",61.9%
same,"viability, T/C",[17],50.3%
same,"viability, T/C",[18],40.7%
same,"viability, T/C",[19],40.1%
same,"viability, T/C",[20],35.2%
same,"viability, T/C","second compound 10 µM, first compound 0.00316 µM",51.3%
same,"viability, T/C","second compound 10 µM, first compound 0.01 µM",34.8%
same,"viability, T/C",[21],34%
same,"viability, T/C",[22],30.8%
same,"viability, T/C",[23],28.1%
same,"viability, T/C",[24],27%
Cn1ncc(Cl)c1-c1cc(C(=O)NC(CN)Cc2cccc(F)c2)sc1Cl (stereo unspecified) + CC(Nc1ncnc2nc[nH]c12)c1cc2cccc(Cl)c2c(=O)n1-c1ccccc1,IC50,second compound 0.0316 µM,518 nM
same,IC50,second compound 0.1 µM,443 nM
same,IC50,second compound 0.316 µM,539 nM
same,IC50,second compound 1 µM,394 nM
same,IC50,second compound 3.16 µM,257 nM
same,IC50,second compound 10 µM,< 31.6 nM
same,"viability, T/C",[1],90.3%
same,"viability, T/C",[2],88.7%
same,"viability, T/C",[3],58.2%
same,"viability, T/C",[4],36%
same,"viability, T/C",[25],13.7%
same,"viability, T/C",[26],6.6%
same,"viability, T/C",[5],74.9%
same,"viability, T/C",[6],83.1%
same,"viability, T/C",[7],55.2%
same,"viability, T/C",[8],30.2%
same,"viability, T/C",[27],12.4%
same,"viability, T/C",[28],6.85%
same,"viability, T/C",[9],89%
same,"viability, T/C",[10],89%
same,"viability, T/C",[11],63.1%
same,"viability, T/C",[12],33.9%
same,"viability, T/C",[29],10.6%
same,"viability, T/C",[30],7.26%
same,"viability, T/C",[13],84.4%
same,"viability, T/C",[14],67.1%
same,"viability, T/C",[15],57.9%
same,"viability, T/C",[16],31.8%
same,"viability, T/C",[31],11.7%
same,"viability, T/C",[32],6.93%
same,"viability, T/C",[17],86.4%
same,"viability, T/C",[18],70.1%
same,"viability, T/C",[19],44.6%
same,"viability, T/C",[20],25.6%
same,"viability, T/C",[33],13.2%
same,"viability, T/C",[34],5.57%
same,"viability, T/C",[21],50.3%
same,"viability, T/C",[22],40.3%
same,"viability, T/C",[23],37.1%
same,"viability, T/C",[24],23%
same,"viability, T/C",[35],10.5%
same,"viability, T/C",[36],5.07%
Cn1nccc1Nc1nccc(-c2ccn(C(CO)c3ccc(Cl)c(F)c3)c(=O)c2)n1 (stereo unspecified) + CC(Nc1ncnc2nc[nH]c12)c1cc2cccc(Cl)c2c(=O)n1-c1ccccc1,IC50,second compound 0.0316 µM,7980 nM
same,IC50,second compound 0.1 µM,5280 nM
same,IC50,second compound 0.316 µM,7480 nM
same,IC50,second compound 1 µM,4180 nM
same,IC50,second compound 3.16 µM,764 nM
same,IC50,second compound 10 µM,< 31.6 nM
same,"viability, T/C",[1],100%
same,"viability, T/C",[2],90.3%
same,"viability, T/C",[3],72.5%
same,"viability, T/C",[4],67.4%
same,"viability, T/C",[25],66.5%
same,"viability, T/C",[26],43.5%
same,"viability, T/C",[5],87.3%
same,"viability, T/C",[6],86.8%
same,"viability, T/C",[7],70.1%
same,"viability, T/C",[8],62.6%
same,"viability, T/C",[27],65.3%
same,"viability, T/C",[28],38.6%
same,"viability, T/C",[9],88.4%
same,"viability, T/C",[10],71.2%
same,"viability, T/C",[11],71.2%
same,"viability, T/C",[12],66.8%
same,"viability, T/C",[29],64%
same,"viability, T/C",[30],44%
same,"viability, T/C",[13],77.9%
same,"viability, T/C",[14],74.6%
same,"viability, T/C",[15],64.5%
same,"viability, T/C",[16],61%
same,"viability, T/C",[31],52%
same,"viability, T/C",[32],43.6%
same,"viability, T/C",[17],63.7%
same,"viability, T/C",[18],69.5%
same,"viability, T/C",[19],50%
same,"viability, T/C",[20],50.3%
same,"viability, T/C",[33],37.2%
same,"viability, T/C",[34],24.9%
same,"viability, T/C",[21],46.7%
same,"viability, T/C",[22],40.9%
same,"viability, T/C",[23],35.7%
same,"viability, T/C",[24],31.4%
same,"viability, T/C",[35],29.5%
same,"viability, T/C",[36],22.2%
